In general, IC50 refers to the concentration needed to halve the response being measured.

Sequence of p38 (Q16539 whole entry, the tested form may be a part): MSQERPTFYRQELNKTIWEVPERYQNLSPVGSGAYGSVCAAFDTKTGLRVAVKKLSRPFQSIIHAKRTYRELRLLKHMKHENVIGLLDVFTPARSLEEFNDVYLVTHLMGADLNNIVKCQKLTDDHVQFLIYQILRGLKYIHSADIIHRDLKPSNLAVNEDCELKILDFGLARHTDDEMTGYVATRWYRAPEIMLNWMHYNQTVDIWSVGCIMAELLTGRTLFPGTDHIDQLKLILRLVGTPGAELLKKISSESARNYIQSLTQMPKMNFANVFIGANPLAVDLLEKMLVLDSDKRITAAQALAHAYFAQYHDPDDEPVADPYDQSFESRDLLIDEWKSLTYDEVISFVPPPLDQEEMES

The assay concerns the target p38 (Homo sapiens, UniProt Q16539). Put plainly: Protein Kinase Assay (33P incorporation from γ-[33P]ATP into GST-ATF-2). The class given is biochemical. To be noted: 2 nM p38, preincubated 20 min at 30° C.; 10 uM cold ATP, 2 uM GST-ATF2, 70 min; read-out: ACT. (Activity), IC50 category in Protein Kinase Assay. Summed up:
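Compounds preincubated 20 min at 30 °C with 2 nM p38; reaction started with 2 uM GST-ATF-2 (aa 19-96) and 10 uM ATP plus γ-[33P]ATP, pH 7.5, 70 min at 30 °C, 2% DMSO. Phosphoric acid stop; 33P-labelled substrate captured on phosphocellulose and counted by scintillation.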
Regarding `COCCNC(=O)c1ccc(-c2cc(NC(=O)Nc3sc(C(C)(C)C)cc3C(=O)N3CCN(C)C(=O)C3(C)C)ccc2C)cn1` [5-(5-(3-(5-tert-butyl-3-(2,2,4-trimethyl-3-oxopiperazine-1-carbonyl)thiophen-2-yl)ureido)-2-methylphenyl)-N-(2-methoxyethyl)pyridine-2-carboxamide], the IC50 was < 100 nM.

As for `CCNC(=O)c1ccc(-c2cc(NC(=O)Nc3sc(C(C)(C)C)cc3C(=O)N3CCN(C)C(=O)C3(C)C)ccc2C)cn1` [5-(5-(3-(5-tert-butyl-3-(2,2,4-trimethyl-3-oxopiperazine-1-carbonyl)thiophen-2-yl)ureido)-2-methylphenyl)-N-ethylpyridine-2-carboxamide], the IC50 was < 100 nM.

Turning to `CON(C)C(=O)c1ccc(-c2cc(NC(=O)Nc3sc(C(C)(C)C)cc3C(=O)N3CCN(C)C(=O)C3(C)C)ccc2C)cn1` [5-(5-(3-(5-tert-butyl-3-(2,2,4-trimethyl-3-oxopiperazine-1-carbonyl)thiophen-2-yl)ureido)-2-methylphenyl)-N-methoxy-N-methylpyridine-2-carboxamide], the 50% inhibitory concentration (IC50) was < 100 nM.

In the case of `Cc1ccc(NC(=O)Nc2sc(C(C)(C)C)cc2C(=O)N2CCN(C)C(=O)C2(C)C)cc1-c1ccc(C(N)=O)nc1` [5-(5-(3-(5-tert-butyl-3-(2,2,4-trimethyl-3-oxopiperazine-1-carbonyl)thiophen-2-yl)ureido)-2-methylphenyl)pyridine-2-carboxamide], the IC50 is < 100 nM.

For `CCNC(=O)c1ccc(-c2cc(NC(=O)Nc3sc(C(C)(C)C)cc3C(=O)N3CCNC(=O)C3(C)C)ccc2C)cn1` [5-(5-(3-(5-tert-butyl-3-(2,2-dimethyl-3-oxopiperazine-1-carbonyl)thiophen-2-yl)ureido)-2-methylphenyl)-N-ethylpyridine-2-carboxamide], the IC50 is < 100 nM.

Take `CNC(=O)c1ccc(-c2cc(NC(=O)Nc3sc(C(C)(C)C)cc3C(=O)N3CCNC(=O)C3(C)C)ccc2C)cn1` [5-(5-(3-(5-tert-butyl-3-(2,2-dimethyl-3-oxopiperazine-1-carbonyl)thiophen-2-yl)ureido)-2-methylphenyl)-N-methylpyridine-2-carboxamide]: the IC50 was < 100 nM.

Consider `Cc1ccc(NC(=O)Nc2sc(C(C)(C)C)cc2C(=O)N2CCN(C)C(=O)C2(C)C)cc1-c1ccc(NS(C)(=O)=O)nc1` [N-(5-(5-(3-(5-tert-butyl-3-(2,2,4-trimethyl-3-oxopiperazine-1-carbonyl)thiophen-2-yl)ureido)-2-methylphenyl)pyridin-2-yl)methanesulfonamide], for which the IC50 is < 100 nM.

Regarding `COC(=O)CN1CCN(C(=O)c2cc(C(C)(C)C)sc2NC(=O)Nc2ccc(C)c(-c3ccncc3)c2)C(C)(C)C1=O` [methyl 2-(4-(2-tert-butyl-5-(3-(4-methyl-3-(pyridin-4-yl)phenyl)ureido)thiophene-4-carbonyl)-3,3-dimethyl-2-oxopiperazin-1-yl)acetate], the IC50 is < 100 nM.

The values are drawn from patent US20100041642A1, “UREA INHIBITORS OF MAP KINASES” (LOCUS PHARMACEUTICALS, INC., priority 2008, published 2010).
